Measured values published in PubChem BioAssay (NCI).
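Five compound concentrations were applied to cells in 96-well plates for 48 hours; endpoints were derived by simple linear interpolation of the resulting dose-response curve. Here, GI50 denotes the concentration required for 50% inhibition of growth. The concentration for full growth arrest is given as TGI.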

Legend:
Assay in all cases: NCI anticancer screen, dose series, 48 h
[1] = tested on: SR leukemia
[2] = tested on: NCI/ADR-RES ovarian
[3] = tested on: OVCAR-3 ovarian
[4] = tested on: HCT-15 colon
[5] = tested on: HL-60(TB) leukemia
[6] = tested on: HOP-62 NSCLC
[7] = tested on: SK-MEL-28 melanoma
[8] = tested on: HOP-92 NSCLC
[9] = tested on: CAKI-1 renal
[10] = tested on: ACHN renal
[11] = tested on: U251 CNS
[12] = tested on: SW-620 colon
[13] = tested on: MDA-N
[14] = tested on: MALME-3M melanoma
[15] = tested on: SF-539 CNS
[16] = tested on: HS 578T breast
[17] = tested on: OVCAR-8 ovarian
[18] = tested on: RPMI-8226 leukemia

Structure (SMILES): CCC/C=C/c1cc2c(cc1O)CC[C@@H]1[C@@H]2CC[C@]2(C)[C@@H](O)CC[C@@H]12
- TGI [1]: 45.7 µM
- TGI [2]: 44.1 µM
- TGI [3]: 47 µM
- TGI [4]: 39.9 µM
- TGI [5]: 27.3 µM
- GI50 [6]: 21.9 µM
- TGI [6]: 42.6 µM
- TGI [7]: 36.5 µM
- TGI [8]: 40.8 µM
- TGI [9]: 41.8 µM
- TGI [10]: 34.2 µM
- TGI [11]: 30.6 µM
- TGI [12]: 37.4 µM
- TGI [13]: 28.3 µM
- TGI [14]: 30.3 µM
- GI50 [15]: 20.2 µM
- TGI [15]: 35.7 µM
- TGI [16]: 57.6 µM
- TGI [17]: 64.2 µM
- TGI [18]: 37.5 µM

Structure (SMILES): COc1cc(/C=C2/SC(c3ccccc3)N(c3ccccc3Cl)C2=O)cc(OC)c1OC (configuration not stated)
- TGI [1]: 58.9 µM
- TGI [2]: 85.3 µM
- TGI [3]: > 100 µM
- TGI [4]: > 100 µM
- TGI [5]: > 100 µM
- TGI [6]: > 100 µM
- TGI [7]: > 100 µM
- TGI [8]: > 100 µM
- TGI [9]: > 100 µM
- TGI [10]: > 100 µM
- TGI [11]: 67.8 µM
- TGI [12]: > 100 µM
- TGI [13]: 69.7 µM
- TGI [14]: 64.7 µM
- TGI [15]: 36.6 µM
- TGI [16]: > 100 µM
- TGI [17]: > 100 µM
- TGI [18]: 52.3 µM

Structure (SMILES): Cc1ccc([N+](=O)[O-])cc1S(=O)(=O)Nc1ccc(C2=NN(c3ccc([N+](=O)[O-])cc3[N+](=O)[O-])C(c3cccs3)C2)cc1 (configuration not stated)
- TGI [1]: 58.6 µM
- TGI [2]: 41.4 µM
- TGI [3]: 34.4 µM
- TGI [4]: 32.7 µM
- TGI [5]: 62.9 µM
- TGI [6]: 58.3 µM
- TGI [7]: > 100 µM
- TGI [8]: 84.6 µM
- TGI [9]: > 100 µM
- TGI [10]: 81.6 µM
- TGI [11]: 72.3 µM
- TGI [12]: > 100 µM
- TGI [13]: 31.4 µM
- TGI [14]: 94.7 µM
- TGI [15]: 71.2 µM
- TGI [16]: 79.1 µM
- TGI [17]: 92.1 µM
- TGI [18]: 60.5 µM

Structure (SMILES): Cc1cc2cc3c(cc2c(-c2ccc([N+](=O)[O-])cc2)n1)OCO3
- TGI [1]: > 100 µM
- TGI [2]: > 100 µM
- TGI [3]: > 100 µM
- TGI [4]: > 100 µM
- TGI [5]: > 100 µM
- TGI [6]: 40 µM
- TGI [7]: > 100 µM
- TGI [8]: 56.8 µM
- TGI [9]: > 100 µM
- TGI [10]: > 100 µM
- TGI [11]: > 100 µM
- TGI [12]: > 100 µM
- TGI [13]: > 100 µM
- TGI [14]: > 100 µM
- TGI [15]: 72.4 µM
- TGI [16]: > 100 µM
- TGI [17]: > 100 µM
- TGI [18]: > 100 µM

Structure (SMILES): Cc1cc2c(cc1C(=O)CCC(=O)O)CC1(C2)Cc2cc(C)c(C(=O)CCC(=O)O)cc2C1
- TGI [1]: > 100 µM
- TGI [2]: > 100 µM
- TGI [3]: > 100 µM
- TGI [4]: > 100 µM
- TGI [5]: > 100 µM
- TGI [6]: > 100 µM
- TGI [7]: > 100 µM
- TGI [8]: > 100 µM
- TGI [9]: > 100 µM
- TGI [10]: > 100 µM
- TGI [11]: > 100 µM
- TGI [12]: > 100 µM
- TGI [13]: > 100 µM
- TGI [14]: > 100 µM
- TGI [15]: > 100 µM
- TGI [16]: > 100 µM
- TGI [17]: > 100 µM
- TGI [18]: > 100 µM
